Reference: patent publication EP1028734B1, “USE OF SPECIFIC STEADY-STATE R-TYPE CALCIUM CHANNEL BLOCKERS” (priority 1997, dated 1999)
Like-named read-outs stand apart in the source and are kept apart here.

Columns and labels:
[1] = anaesthetized guinea pig, blood pressure and bronchoconstriction, PAF challenge; format: in vivo
Excerpt: (§1) On the other hand, in vivo administered PAF, induced a marked hypotension in the anaesthetized rat and guinea pig.

[2] = anaesthetized rat, blood pressure, PAF challenge; format: in vivo; conditions: results not shown
Excerpt: as §1

R-type Ca^2+ channel = assay: block of R-type Ca2+ channel (data not shown); format: cell-based
[3] = writhe responses in mice (acetic acid, acetylcholine, kaolin); format: in vivo; conditions: i.p., mice; for ID50 ACETYLCHOLINE: acetylcholine-induced writhes; for ID50 KAOLIN: kaolin-induced writhes
Excerpt: (§2) The antinociceptive actions of compound MV 8612 and MV 8608 were investigated in different models of nociception in mice as reported previously (Vaz et al., 1996, J. Pharmacol. Exp. Ther. 278:304-312).

tail-flick in mice = format: in vivo; conditions: i.p.
Excerpt: as §2

[4] = system: human osteoblast cancer lines (MG63 and FAOS-2); assay: spontaneous proliferation of human osteoblast cancer lines; format: cell-based; conditions: Lomir/Dynacirc 10^-8M, nifedipine 10^-6M, non published results
[5] = organ (allograft) transplant with cyclosporin A treatment, ET-1, blood flow, hypertension; format: in vivo, rabbit
fast Na^+ channel = assay: block of fast Na+ channel (data not shown); format: cell-based; conditions: read-out: ED50, fast Na^+ channel
[6] = La Civita et al., 1996; cited from earlier work
[7] = cited from earlier work
[8] = transplant patients, Berg et al., 1991

With `COC(=O)C1=C(C)NC(C)=C(C(=O)OC)C1c1ccccc1[N+](=O)[O-]` [nifedipine] the “intrinsic (hypotensive) effect” value [1] was “marked intrinsic hypotensive properties” and the intrinsic hypotensive properties [2] was “marked intrinsic hypotensive properties”.
For `COc1ccc([C@@H]2Sc3ccccc3N(CCN(C)C)C(=O)[C@@H]2OC(C)=O)cc1` [Diltiazem], the “block of the R-type Ca^2+ by L-type Ca^2+ channel blockers” value (“block” below) (R-type Ca^2+ channel) was “none were found to block”.
With `COc1ccc2c(c1)c(CC(=O)O)c(C)n2C(=O)c1ccc(Cl)cc1` [INDOMETHACIN, indomethacin] the “ID50 ACETIC ACID” value ([3]; acetic acid-induced writhes) was 1.2 (0.9-1.4) µmol/kg, the “ID50 ACETYLCHOLINE” value [3] was 0.8 (0.5-1.0) µmol/kg and the “ID50 KAOLIN” value [3] was 1.6 (1.4-1.8) µmol/kg. The “ID50 TAIL-FLICK” value (tail-flick in mice) was “no effect”.
In the case of `CN1CC[C@]23c4c5ccc(O)c4O[C@H]2[C@@H](O)C=C[C@H]3[C@H]1C5` [MORPHINE, morphine], the “ID50 ACETYLCHOLINE” value [3] is reported as 1.4 (1.0-1.8) µmol/kg, the “ID50 KAOLIN” value [3] is reported as 1.4 (1.2-1.7) µmol/kg and the “ID50 TAIL-FLICK” value (tail-flick in mice) is reported as 6.0(5.7-6.4) µmol/kg.
With `COc1ccc(CCN(C)CCCC(C#N)(c2ccc(OC)c(OC)c2)C(C)C)cc1OC` (stereo not shown) [Verapamil] the “block” value (R-type Ca^2+ channel) was “none were found to block”.
With `COC(=O)C1=C(C)NC(C)=C(C(=O)OC(C)C)C1c1cccc2nonc12` (stereo not shown) [isradipine] the “intrinsic (hypotensive) effect” value [1] was “marked intrinsic hypotensive properties”, the intrinsic hypotensive properties [2] was “marked intrinsic hypotensive properties” and the spontaneous cell proliferation [4] was “reduced”. For the same compound, the “elevated circulating endothelin level induced with the Sandimmune drugs” value ([5]; data not shown) was “blocks”, the “hypertension and ET-1 plasma elevation associated with cyclosporin A treatment in allograft transplant” value ([5]; non published results) was “blocked” and the “increase of circulating ET-1 and decrease of blood flow in organ transplants” value ([5]; rabbit, cyclosporin-A treated and transplanted animals) was “restored”. The EC50 (fast Na^+ channel) was roughly 10 µM, the “elevated plasma concentration of ET-1 level, frequency, severity of acute attacks of Raynaud's phenomenon” value [6] was “significantly reduced” and the filtration fraction ([7]; 3-month study, Grossman et al. 1991) was “remained constant”. For the same compound, the filtration fraction [7, 8] was “reduced” and the renal blood flow [7, 8] was “increased”.
In the case of `COc1ccc(CCN(C)CCCC(C#N)(c2cc(OC)c(OC)c(OC)c2)C(C)C)cc1OC` (stereo not shown) [D600], the “block” value (R-type Ca^2+ channel) is reported as “none were found to block”.
For `COc1cccc(CCN(C)CCCC(C#N)(c2ccc(OC)c(OC)c2)C(C)C)c1` (stereo not shown) [D888], the “block” value (R-type Ca^2+ channel) was “none were found to block”.
With `COc1ccc([C@@H]2Sc3cc(Cl)ccc3N(CCN(C)C)C(=O)[C@@H]2OC(C)=O)cc1` [Clentiazem] the “block” value (R-type Ca^2+ channel) was “none were found to block”.
